According to patent US10577383B2, “Macrocyclic inhibitors of myeloperoxidase” (BRISTOL-MYERS SQUIBB COMPANY, priority 2016, dated 2020):
pIC50: −log10 of the molar value.

Experiments:
[1] = the molecule shown is the open-chain precursor; ether bond; 16-membered ring; CuI/1,10-phenanthroline/Cs2CO3; toluene; 4.8 mM; 150.0 °C
EPX = EPX (Homo sapiens (Human), UniProt P11678); assay: EPX Bromination Assay; assay type: biochemical; details: EPX bromination activity, 100 mM KPi (pH 7.4), 3-bromo tyrosine formation
EPX, sequence (P11678 251-715): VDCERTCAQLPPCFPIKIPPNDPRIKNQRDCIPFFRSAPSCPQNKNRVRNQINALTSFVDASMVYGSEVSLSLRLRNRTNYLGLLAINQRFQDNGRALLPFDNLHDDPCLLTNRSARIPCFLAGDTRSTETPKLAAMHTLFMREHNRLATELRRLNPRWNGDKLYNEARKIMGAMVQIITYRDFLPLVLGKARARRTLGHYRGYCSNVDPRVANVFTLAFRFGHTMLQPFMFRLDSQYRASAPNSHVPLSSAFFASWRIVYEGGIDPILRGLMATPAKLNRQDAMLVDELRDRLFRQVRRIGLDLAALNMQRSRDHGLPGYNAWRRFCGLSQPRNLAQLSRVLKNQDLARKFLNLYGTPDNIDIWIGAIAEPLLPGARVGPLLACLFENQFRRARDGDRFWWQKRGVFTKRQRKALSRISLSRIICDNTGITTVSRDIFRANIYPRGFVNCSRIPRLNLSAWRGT
EPX, sequence (P11678 140-250): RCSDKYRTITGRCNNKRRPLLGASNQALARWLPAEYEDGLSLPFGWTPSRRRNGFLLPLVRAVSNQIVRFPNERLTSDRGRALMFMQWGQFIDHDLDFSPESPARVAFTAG
Procedure: (§1) [formula] where A=minimal Y value (activity level of inhibited sample), B=maximal Y value (activity level of uninhibited sample), C=Log IC50, D=Hill Slope, x=concentration of inhibitor. EPX Bromination Assay
EPX bromination activity was measured in 100 mM KPi (pH 7.4) by monitoring the H2O2 catalyzed formation of 3-bromo tyrosine from tyrosine and potassium bromide. A 50 μl mixture of 0.6 μM EPX (Lee Biosolutions Cat. #342-60) was added to 100 nL inhibitor in 100% DMSO in a 384 well REMP plate. Enzyme and compound were preincubated for ten minutes at room temperature.
After the ten minute preincubation of enzyme and inhibitor, 25 μL of a mixture containing 400 μM tyrosine and 1200 μM potassium bromide was added to the plate containing enzyme and inhibitor, followed by the addition of 25 μl of 20 μM H2O2. The reaction was allowed to proceed for 15 minutes, at which time it was quenched with 10 μL of 20% TCA. The final concentrations of all components were 0.3 μM EPX, 100 μM tyrosine, […], 5 μM H2O2, 0.1% DMSO, 2.0% TCA.
IC50 values were determined by determining the peak areas of 3-bromo-tyrosine present at the end of the 15 minute reaction and fitting the data to:
[formula] where A=minimal Y value (activity level of inhibited sample), B=maximal Y value (activity level of uninhibited sample), C=Log IC50, D=Hill Slope, x=concentration of inhibitor.
Reversed-phase analysis was performed on a Waters Acquity Ultra Performance LC system using an Acquity UPLC BEH C18 […], 2.1×50 mm analytical column. The column was maintained at 60° C. Samples were eluted using a gradient of 0%-100% B over 2.5 minutes, followed by equilibration with 100% A for 1 minute where A consisted of 0.1% TFA and B consisted of 90% MeOH/0.1% TFA at a flow rate of 0.6 mL/min. The retention time of 3-bromo tyrosine was 1.22 min

myeloperoxidase [2] = molecular target: T1, myeloperoxidase (Homo sapiens (Human), UniProt P05164); assay: MPO Peroxidation Assay (Amplex Red Assay); assay type: biochemical; details: MPO peroxidation activity, 100 mM KPi (pH 7.4), ten minute preincubation; potency ranges defined in nM
T1 sequence (P05164 49-745): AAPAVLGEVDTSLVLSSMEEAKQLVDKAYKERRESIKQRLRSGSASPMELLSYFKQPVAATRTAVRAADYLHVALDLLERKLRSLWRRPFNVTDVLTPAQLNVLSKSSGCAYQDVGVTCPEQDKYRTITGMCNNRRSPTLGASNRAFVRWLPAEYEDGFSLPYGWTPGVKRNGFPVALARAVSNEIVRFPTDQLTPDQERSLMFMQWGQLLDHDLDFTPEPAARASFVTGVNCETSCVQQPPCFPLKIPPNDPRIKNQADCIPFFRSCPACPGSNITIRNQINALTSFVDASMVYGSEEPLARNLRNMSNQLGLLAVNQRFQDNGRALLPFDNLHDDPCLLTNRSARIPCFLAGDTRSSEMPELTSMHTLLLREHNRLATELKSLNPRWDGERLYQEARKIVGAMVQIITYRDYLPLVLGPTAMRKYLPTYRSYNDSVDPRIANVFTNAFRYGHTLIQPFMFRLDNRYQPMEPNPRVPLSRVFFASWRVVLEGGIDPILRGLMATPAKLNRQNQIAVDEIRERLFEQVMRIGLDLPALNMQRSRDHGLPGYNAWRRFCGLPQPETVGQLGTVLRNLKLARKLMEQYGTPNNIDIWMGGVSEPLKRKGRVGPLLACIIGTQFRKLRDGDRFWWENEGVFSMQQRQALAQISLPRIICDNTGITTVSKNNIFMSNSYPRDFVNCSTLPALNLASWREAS
Procedure: MPO Peroxidation Assay (Amplex Red Assay)
MPO peroxidation activity was measured in 100 mM KPi (pH 7.4) by utilizing the non-fluorescent reagent Amplex Red (Invitrogen Cat. #A12222) which can be oxidized to the highly fluorescent resorufin. Amplex Red is oxidized by the peroxidase action of MPO to resorufin. Reactions were carried out in 50 μL total volume by adding a 25 μL mixture of 200 pM myeloperoxidase and 40 nM H2O2 (Sigma #349887) to 100 nL inhibitor in 100% DMSO in a 384 well Perkin Elmer Optiplate. Enzyme and compound were preincubated for ten minutes at room temperature.
After the ten minute preincubation, 25 μL of an Amplex Red mixture containing 200 μM Amplex Red and 10 mM H2O2 was added to the plate. Kinetic determinations were carried out immediately on a Perkin Elmer Envision (15 minute kinetic read, Ex: 535 nm, Em: 590 nm).
(§2) IC50 values were calculated by determining the slope of the linear portion of the kinetic trace (180-540 secs), and using that calculated slope to determine % inhibition occurring at each concentration of inhibitor using the following equation:
(§3) [formula] where A=minimal Y value (activity level of inhibited sample), B=maximal Y value (activity level of uninhibited sample), C=Log IC50, D=Hill Slope, x=concentration of inhibitor. MPO Chlorination Assay (APF Assay) MPO chlorination activity was measured in 100 mM KPi (pH 7.4) by utilizing the non-fluorescent reagent Aminophenyl fluorescein (APF, Invitrogen Cat. #A36003). APF is cleaved by (—OCl) to yield the fluorescent compound fluorescein. Reactions were carried out in 50 μL total volume by adding a 25 μL mixture of 200 pM myeloperoxidase and 120 mM NaCl to 100 nL inhibitor in 100% DMSO in a 384 well, non-binding surface clear bottom plate (Corning #3655). Enzyme, inhibitor, and chloride were preincubated for ten minutes at room temperature.

myeloperoxidase [3] = molecular target: T1, myeloperoxidase; assay: MPO Chlorination Assay (APF Assay); assay type: biochemical; details: MPO chlorination activity, 100 mM KPi (pH 7.4), 120 mM NaCl, ten minute preincubation; potency ranges defined in nM
Procedure: as §3
After the ten minute preincubation, 25 μL of an APF mixture containing […], 120 mM NaCl and 10 μM H2O2 was added to the plate using the internal dispensing system of a Hammatsu FDSS 6000. Kinetic determinations were carried out immediately on the FDSS 6000 (3 minute kinetic read, 1 read every second, ex: 485 nm, em: 535 nm). IC50 values for inhibitors were calculated by taking the slope of the linear portion of the kinetic measurement (20 seconds to 80-120 secs).
as §2, §1

Row | Compound | pIC50 (EPX) | IC50 (myeloperoxidase [2]) [nM] | IC50 (myeloperoxidase [3]) [nM] | ring closure, isolated yield [1] [%]
1 | Oc1cccc(Cn2cc(C(CCNCc3cccc(I)c3)c3cc(NC(c4ccccc4)(c4ccccc4)c4ccccc4)nc4c3nnn4C(c3ccccc3)(c3ccccc3)c3ccccc3)cn2)c1 (stereo not shown) |  |  |  | 29
2 | Nc1cc(C2CCNCC3(CC3)COc3cccc(c3)Cn3cc2cn3)c2nn[nH]c2n1 (single isomer, unassigned) [Example 20, 7-{14′-Oxa-3′,4′,10′-triazaspiro[cyclopropane-1,12′-tricyclo[13.3.1.1^3,^6]icosane]-1′(19′),4′,6′(20′),15′,17′-pentaen-7′-yl}-3H-[1,2,3]triazolo[4,5-b]pyridin-5-amine] | 7.20 | 101 to 999 | 101 to 999 | 
3 | Nc1cc(C2CCNC3CCC(CC3)COc3cccc(c3)Cn3cc2cn3)c2nn[nH]c2n1 (stereo not shown) [Example 18, 7-{3-Oxa-10,11,17-triazatetracyclo[16.2.2.1^4,^8.1^1^0,^13]tetracosa-4,6,8(24),11,13(23)-pentaen-14-yl}-3H-[1,2,3]triazolo[4,5-b]pyridin-5-amine] | 6.66 | 101 to 999 | 1 to 100 | 

The next lines start with results.

Row | pIC50 (EPX) | IC50 (myeloperoxidase [2]) [nM] | IC50 (myeloperoxidase [3]) [nM] | Compound | ring closure, isolated yield [1] [%]
4 | 7.43 | 1 to 100 | 1 to 100 | Nc1cc(C2CCNCCc3cccc(c3)Oc3cccc(c3)Cn3cc2cn3)c2nn[nH]c2n1 (single isomer, unassigned) [Example 5, 7-{18-oxa-3,4,10-triazatetracyclo[17.3.1.1^3,^6.1^13,^1^7]pentacosa-1(23),4,6(25),13,15,17(24),19,21-octaen-7-yl}-3H-[1,2,3]triazolo[4,5-b]pyridin-5-amine] | 
5 | 6.72 | 101 to 999 | 1 to 100 | Nc1cc(C2CCNCc3cccc(c3)COc3cccc(c3)Cn3cc2cn3)c2nn[nH]c2n1 (stereo not shown) [Example 2, 7-{18-oxa-3,4,10-triazatetracyclo[17.3.1.1^3,^6.1^12,^1^6]pentacosa-1(23),4,6(25),12,14,16(24),19,21-octaen-7-yl}-3H-[1,2,3]triazolo[4,5-b]pyridin-5-amine] | 
